In patent US9725416B2, “Ethynyl derivatives” (Hoffmann-La Roche Inc., priority 2014, dated 2017) one finds Emax and EC50 data, which are given here for 24 compounds.

The target of the experiment is T1, human mGlu4 receptor (Homo sapiens, UniProt Q14833).
T1 construct: expressed in transfected cells; host or cells: HEK-293 (monoclonal, stably transfected)
In words: Ca2+ mobilization in vitro assay on recombinant human mGlu4 expressed in HEK293 cells (mGlu4 PAM). Type of experiment: cell-based. The settings on record: for Emax: HEK293, maximal response in % of the maximal stimulatory effect obtained with saturating concentrations of L-AP4, read-out: Eff. (%); for EC50: HEK-293 cells, Ca2+ mobilization, L-AP4 added at EC20. The method, then: Determination of EC50 Values Using a Ca2+ mobilization in vitro Assay on Recombinant Human mGlu4 Expressed in HEK293 cells:
A monoclonal HEK-293 cell line stably transfected with a cDNA encoding for the human mGlu4 receptor was generated; for the work with mGlu4 Positive Allosteric Modulators (PAMs), a cell line with low receptor expression levels and low constitutive receptor activity was selected to allow the differentiation of agonistic versus PAM activity. Cells were cultured according to standard protocols (Freshney, 2000) in Dulbecco's Modified Eagle Medium with high glucose supplemented with 1 mM glutamine, 10% (vol/vol) heat-inactivated bovine calf serum, Penicillin/Streptomycin, 50 μg/ml hygromycin and 15 μg/ml blasticidin (all cell culture reagents and antibiotics from Invitrogen, Basel, Switzerland).
About 24 hrs before an experiment, 5×10^4 cells/well were seeded in poly-D-lysine coated, black/clear-bottomed 96-well plates. The cells were loaded with 2.5 μM Fluo-4AM in loading buffer (1×HBSS, 20 mM HEPES) for 1 hr at 37° C. and washed five times with loading buffer. The cells were transferred into a Functional Drug Screening System 7000 (Hamamatsu, Paris, France), and 11 half logarithmic serial dilutions of test compound at 37° C. were added and the cells were incubated for 10-30 min. with on-line recording of fluorescence. Following this pre-incubation step, the agonist (2S)-2-amino-4-phosphonobutanoic acid (L-AP4) was added to the cells at a concentration corresponding to EC20 with on-line recording of fluorescence; in order to account for day-to-day variations in the responsiveness of cells, the EC20 of L-AP4 was determined immediately ahead of each experiment by recording of a full dose-response curve of L-AP4.
Responses were measured as peak increase in fluorescence minus basal (i.e. fluorescence without addition of L-AP4), normalized to the maximal stimulatory effect obtained with saturating concentrations of L-AP4. Graphs were plotted with the % maximal stimulatory using XLfit, a curve fitting program that iteratively plots the data using Levenburg Marquardt algorithm. The single site competition analysis equation used was y=A+((B−A)/(1+((x/C)D))), where y is the % maximal stimulatory effect, A is the minimum y, B is the maximum y, C is the EC50, x is the log 10 of the concentration of the competing compound and D is the slope of the curve (the Hill Coefficient). From these curves the EC50 (drug concentration at which 50% of the maximal receptor activation was achieved), the Hill coefficient as well as the maximal response in % of the maximal stimulatory effect obtained with saturating concentrations of L-AP4 were calculated (see FIG. 1).
A depression of the signal observed after addition of the EC20 concentration of L-AP4was indicative of an inhibitory activity of the test compound.
For orientation: A change in cytosolic calcium serves as a functional read-out for many receptors and channels.

The term EC50 denotes the midpoint of the concentration-response curve.

T1 sequence (Q14833 33-912): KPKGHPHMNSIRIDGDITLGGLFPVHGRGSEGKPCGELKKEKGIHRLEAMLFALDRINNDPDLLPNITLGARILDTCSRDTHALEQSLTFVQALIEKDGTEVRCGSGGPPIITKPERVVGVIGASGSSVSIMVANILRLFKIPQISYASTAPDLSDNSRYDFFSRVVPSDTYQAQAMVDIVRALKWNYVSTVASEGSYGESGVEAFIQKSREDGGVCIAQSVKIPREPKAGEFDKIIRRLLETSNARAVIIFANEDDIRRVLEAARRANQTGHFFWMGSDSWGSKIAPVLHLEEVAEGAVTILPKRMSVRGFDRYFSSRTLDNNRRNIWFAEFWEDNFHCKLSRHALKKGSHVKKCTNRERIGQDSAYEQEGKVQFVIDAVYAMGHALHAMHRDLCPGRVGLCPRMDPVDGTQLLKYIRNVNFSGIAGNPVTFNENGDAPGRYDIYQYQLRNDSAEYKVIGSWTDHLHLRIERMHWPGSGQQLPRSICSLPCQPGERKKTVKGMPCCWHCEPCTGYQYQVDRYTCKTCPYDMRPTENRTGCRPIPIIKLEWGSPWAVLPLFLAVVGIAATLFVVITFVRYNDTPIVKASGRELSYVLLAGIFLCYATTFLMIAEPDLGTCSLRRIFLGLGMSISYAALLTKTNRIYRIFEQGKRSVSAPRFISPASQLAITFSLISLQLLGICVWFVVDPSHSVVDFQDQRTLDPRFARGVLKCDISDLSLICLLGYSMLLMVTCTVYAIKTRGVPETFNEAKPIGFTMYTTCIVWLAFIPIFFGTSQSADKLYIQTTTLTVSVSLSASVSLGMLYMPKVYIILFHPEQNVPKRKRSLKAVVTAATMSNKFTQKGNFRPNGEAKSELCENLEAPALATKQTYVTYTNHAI

For `CN1C(=O)N(c2ccc(C#Cc3ccccc3)cc2Cl)C(=O)CC12CCOCC2` [Example 4, 3-[2-Chloro-4-(2-phenylethynyl)phenyl]-1-methyl-9-oxa-1,3-diazaspiro[5.5]undecane-2,4-dione], the Emax was determined as 103% and the EC50 is 388 nM.
Consider `CN1C(=O)N(c2ccc(C#Cc3ccccc3)cc2Cl)C(=O)CC12CCC2` [Example 5, 7-[2-Chloro-4-(2-phenylethynyl)phenyl]-5-methyl-5,7-diazaspiro[3.5]nonane-6,8-dione], for which the Emax worked out at 93% and the EC50 came to 304 nM.
For the compound `CN1C(=O)N(c2c(F)cc(C#Cc3ccccc3)cc2F)C(=O)CC12CCCC2` [Example 6, 8-[2,6-Difluoro-4-(2-phenylethynyl)phenyl]-6-methyl-6,8-diazaspiro[4.5]decane-7,9-dione], the Emax was found to be 142% and the concentration giving a half-maximal response (EC50) was determined as 72 nM.
Taken in the same sequence, the figures for `CN1C(=O)N(c2c(F)cc(C#Cc3cccnc3)cc2Cl)C(=O)CC1(C)C` [Example 9, 3-[2-Chloro-6-fluoro-4-[2-(3-pyridyl)ethynyl]phenyl]-1,6,6-trimethyl-hexahydropyrimidine-2,4-dione] were 110% and 429 nM.
The matching figures for `CCN1C(=O)N(c2c(F)cc(C#Cc3cccnc3)cc2Cl)C(=O)CC1(C)C` [Example 10, 3-[2-Chloro-6-fluoro-4-[2-(3-pyridyl)ethynyl]phenyl]-1-ethyl-6,6-dimethyl-hexahydropyrimidine-2,4-dione]: 169% and 256 nM.
The matching figures for `CCC1(CC)CC(=O)N(c2c(F)cc(C#Cc3ccccc3)cc2F)C(=O)N1` [Example 21, 3-[2,6-Difluoro-4-(2-phenylethynyl)phenyl]-6,6-diethyl-hexahydropyrimidine-2,4-dione]: 106% and 145 nM.
Consider `CCC1(CC)CC(=O)N(c2c(F)cc(C#Cc3ccccc3)cc2F)C(=O)N1C` [Example 22, 3-[2,6-Difluoro-4-(2-phenylethynyl)phenyl]-6,6-diethyl-1-methyl-hexahydropyrimidine-2,4-dione], for which the Emax is 137% and the EC50 came out at 73 nM.
For `CN1C(=O)N(c2c(F)cc(C#Cc3ccccc3)cc2F)C(=O)C[C@@]1(C)c1cccnc1` [Example 49, (6S)-3-[2,6-Difluoro-4-(2-phenylethynyl)phenyl]-1,6-dimethyl-6-(3-pyridyl)hexahydropyrimidine-2,4-dione], the Emax stood at 98% and the half-maximal effective concentration (EC50) amounted to 37 nM.
As for `CN1C(=O)N(c2ncc(C#Cc3ccccc3)cc2F)C(=O)C[C@@]1(C)c1cccnc1` [Example 50, (6S)-3-[3-Fluoro-5-(2-phenylethynyl)-2-pyridyl]-1,6-dimethyl-6-(3-pyridyl)hexahydropyrimidine-2,4-dione], the Emax came out at 164% and the EC50 was found to be 104 nM.
Taken in the same sequence, the figures for `CCN1C(=O)N(c2c(F)cc(C#Cc3ccccc3)cc2F)C(=O)C[C@@]1(C)c1cccnc1` [Example 52, (6S)-3-[2,6-Difluoro-4-(2-phenylethynyl)phenyl]-1-ethyl-6-methyl-6-(3-pyridyl)hexahydropyrimidine-2,4-dione] were 99% and 48 nM.
Take `CN1C(=O)N(c2c(F)cc(C#Cc3cccnc3)cc2F)C(=O)C[C@@]1(C)c1cccnc1` [Example 53, (6S)-3-[2,6-Difluoro-4-[2-(3-pyridyl)ethynyl]phenyl]-1,6-dimethyl-6-(3-pyridyl)hexahydropyrimidine-2,4-dione]: the Emax is 110% and the concentration giving a half-maximal response (EC50) turned out to be 80 nM.
Taken in the same sequence, the figures for `Cc1ccc([C@]2(C)CC(=O)N(c3c(F)cc(C#Cc4ccccc4)cc3F)C(=O)N2C)cn1` [Example 54, (6S)-3-[2,6-Difluoro-4-(2-phenylethynyl)phenyl]-1,6-dimethyl-6-(6-methyl-3-pyridyl)hexahydropyrimidine-2,4-dione] were 98% and 70 nM.
On to `CN1C(=O)N(c2c(F)cc(C#Cc3ccccc3)cc2F)C(=O)C[C@@]1(C)c1ccncn1` [Example 55, (6S)-3-[2,6-Difluoro-4-(2-phenylethynyl)phenyl]-1,6-dimethyl-6-pyrimidin-4-yl-hexahydropyrimidine-2,4-dione], for which the Emax amounted to 106% and the EC50 worked out at 44 nM.
On to `CN1C(=O)N(c2c(F)cc(C#Cc3ccccc3)cc2F)C(=O)C[C@@]1(C)c1cncnc1` [Example 56, (6S)-3-[2,6-Difluoro-4-(2-phenylethynyl)phenyl]-1,6-dimethyl-6-pyrimidin-5-yl-hexahydropyrimidine-2,4-dione], for which the Emax was 99% and the concentration giving a half-maximal response (EC50) worked out at 79 nM.
Taken in the same sequence, the figures for `CN1C(=O)N(c2c(F)cc(C#Cc3ccccc3)cc2F)C(=O)C[C@@]1(C)c1cnccn1` [Example 57, (6S)-3-[2,6-Difluoro-4-(2-phenylethynyl)phenyl]-1,6-dimethyl-6-pyrazin-2-yl-hexahydropyrimidine-2,4-dione] were 102% and 117 nM.
Consider `CN1C(=O)N(c2c(F)cc(C#Cc3ccccc3)cc2F)C(=O)C[C@@]1(C)c1cccnn1` [Example 58, (6S)-3-[2,6-Difluoro-4-(2-phenylethynyl)phenyl]-1,6-dimethyl-6-pyridazin-3-yl-hexahydropyrimidine-2,4-dione], for which the Emax was 99% and the EC50 was 49 nM.
The matching figures for `CN1C(=O)N(c2c(F)cc(C#Cc3ccccc3)cc2F)C(=O)C[C@@]1(C)c1cncc(F)c1` [Example 59, (6S)-3-[2,6-Difluoro-4-(2-phenylethynyl)phenyl]-6-(5-fluoro-3-pyridyl)-1,6-dimethyl-hexahydropyrimidine-2,4-dione]: 89% and 75 nM.
Taken in the same sequence, the figures for `CN1C(=O)N(c2c(F)cc(C#Cc3ccccc3)cc2F)C(=O)C[C@@]1(C)c1ccnc(Cl)c1` [Example 60, (6S)-6-(2-Chloro-4-pyridyl)-3-[2,6-difluoro-4-(2-phenylethynyl)phenyl]-1,6-dimethyl-hexahydropyrimidine-2,4-dione] were 113% and 38 nM.
`CN1C(=O)N(c2c(F)cc(C#Cc3ccccc3)cc2F)C(=O)C[C@@]1(C)c1ccnnc1` [Example 61, (6S)-3-[2,6-Difluoro-4-(2-phenylethynyl)phenyl]-1,6-dimethyl-6-pyridazin-4-yl-hexahydropyrimidine-2,4-dione]: the Emax is 136% and the EC50 was 84 nM.
On to `Cc1cc([C@]2(C)CC(=O)N(c3c(F)cc(C#Cc4ccccc4)cc3F)C(=O)N2C)ccn1` [Example 62, (6S)-3-[2,6-Difluoro-4-(2-phenylethynyl)phenyl]-1,6-dimethyl-6-(2-methyl-4-pyridyl)hexahydropyrimidine-2,4-dione], for which the Emax was 102% and the concentration giving a half-maximal response (EC50) came to 56 nM.
Taken in the same sequence, the figures for `COc1ccc([C@]2(C)CC(=O)N(c3c(F)cc(C#Cc4ccccc4)cc3F)C(=O)N2C)cn1` [Example 63, (6S)-3-[2,6-Difluoro-4-(2-phenylethynyl)phenyl]-6-(6-methoxy-3-pyridyl)-1,6-dimethyl-hexahydropyrimidine-2,4-dione] were 109% and 42 nM.
Taken in the same sequence, the figures for `CN1C(=O)N(c2c(F)cc(C#Cc3cccnc3)cc2F)C(=O)C[C@@]1(C)c1ccnc(Cl)c1` [Example 64, (6S)-6-(2-Chloro-4-pyridyl)-3-[2,6-difluoro-4-[2-(3-pyridyl)ethynyl]phenyl]-1,6-dimethyl-hexahydropyrimidine-2,4-dione] were 119% and 124 nM.
Consider `CN1C(=O)N(c2c(F)cc(C#Cc3ccccc3)cc2F)C(=O)C[C@@]1(C)c1ccc(=O)[nH]c1` [Example 65, (6S)-3-[2,6-Difluoro-4-(2-phenylethynyl)phenyl]-1,6-dimethyl-6-(6-oxo-1H-pyridin-3-yl)hexahydropyrimidine-2,4-dione], for which the Emax came out at 123% and the EC50 was found to be 36 nM.
The matching figures for `CN1C(=O)N(c2c(F)cc(C#Cc3ccccc3)cc2F)C(=O)C[C@@]1(C)c1ccc(=O)n(C)c1` [Example 66, (6S)-3-[2,6-Difluoro-4-(2-phenylethynyl)phenyl]-1,6-dimethyl-6-(1-methyl-6-oxo-3-pyridyl)hexahydropyrimidine-2,4-dione]: 114% and 43 nM.
